Common to all, as to assay type: cell-based
Common to all, as to details: Table 7; cAMP formation
Background: cAMP levels reflect the balance of adenylyl cyclase and phosphodiesterase activity.

For assay [1], the target named is T1, human GIP receptor (hGIP R) (Homo sapiens, UniProt P48546).
T1 construct: expressed in transfected cells
T1 sequence (P48546 22-466): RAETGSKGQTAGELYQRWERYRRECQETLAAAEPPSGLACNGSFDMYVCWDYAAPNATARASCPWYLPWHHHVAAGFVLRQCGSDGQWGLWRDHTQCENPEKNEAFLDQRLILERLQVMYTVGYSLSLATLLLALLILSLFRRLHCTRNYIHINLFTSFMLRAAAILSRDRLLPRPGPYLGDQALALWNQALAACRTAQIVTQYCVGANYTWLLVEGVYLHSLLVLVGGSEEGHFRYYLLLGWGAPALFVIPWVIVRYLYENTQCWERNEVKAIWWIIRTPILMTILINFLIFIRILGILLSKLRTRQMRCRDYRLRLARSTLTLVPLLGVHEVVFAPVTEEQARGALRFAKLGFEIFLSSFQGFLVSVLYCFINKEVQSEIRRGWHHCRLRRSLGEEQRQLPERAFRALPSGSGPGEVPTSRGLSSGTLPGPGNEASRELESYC
The experiment in a line: cAMP response of HEK-293 cells stably expressing human GIP receptor (HTRF). Summed up: (§1)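 cAMP accumulation was read by homogeneous time-resolved fluorescence after 30 min compound exposure at room temperature. Stable receptor-expressing HEK-293 cells, 400000 cells/ml, were used in HEPES-buffered HBSS containing 0.1% BSA and the phosphodiesterase inhibitor IBMX (2 mM).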
(In general: TR-FRET usually uses a lanthanide donor and a delayed reading to cut background.)

Assay [2] has as its target T2, human glucagon receptor (hGLUC R) (Homo sapiens, UniProt P47871).
T2 construct: expressed in transfected cells
Kind of assay: cAMP response of HEK-293 cells stably expressing human glucagon receptor (HTRF). Summed up:
as §1

The target of assay [3] is T3, human GLP-1 receptor (hGLP-1 R) (Homo sapiens, UniProt P43220).
T3 construct: expressed in transfected cells
Kind of assay: cAMP response of HEK-293 cells stably expressing human GLP-1 receptor (HTRF). In short, it runs like this:
as §1

For six compounds, EC50 results are on record in patent US20140213513A1 (Sanofi, priority 2012, published 2014).

Each structure is given as a SMILES string. *1 amine or outer side, *2 acyl side, *3 side chain or, on linkers, in order; H or OH if unused. Where a SMILES comes first, the peptide text is derived from it. Side-chain parts run from the residue outwards. [ ]: non-standard residue; d: D form. The star is where a group is joined. γGlu = O=C(O)[C@H](CCC(=O)[*:2])N[*:1]; Palmitoyl = CCCCCCCCCCCCCCCC(=O)*; Aib = CC(C)(N)C(=O)O

T3 sequence (P43220 24-463): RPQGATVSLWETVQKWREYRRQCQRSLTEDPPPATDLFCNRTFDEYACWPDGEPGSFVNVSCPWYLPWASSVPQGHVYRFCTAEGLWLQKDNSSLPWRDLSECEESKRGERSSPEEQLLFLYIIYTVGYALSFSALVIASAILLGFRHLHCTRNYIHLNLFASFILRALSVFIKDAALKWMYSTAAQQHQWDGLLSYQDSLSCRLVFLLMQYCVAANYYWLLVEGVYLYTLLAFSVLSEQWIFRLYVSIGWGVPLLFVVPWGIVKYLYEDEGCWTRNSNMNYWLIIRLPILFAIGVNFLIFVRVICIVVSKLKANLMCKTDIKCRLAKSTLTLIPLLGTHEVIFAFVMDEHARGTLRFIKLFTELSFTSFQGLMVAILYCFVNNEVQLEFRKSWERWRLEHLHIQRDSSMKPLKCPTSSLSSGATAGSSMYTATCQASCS
T2 sequence (P47871 26-477): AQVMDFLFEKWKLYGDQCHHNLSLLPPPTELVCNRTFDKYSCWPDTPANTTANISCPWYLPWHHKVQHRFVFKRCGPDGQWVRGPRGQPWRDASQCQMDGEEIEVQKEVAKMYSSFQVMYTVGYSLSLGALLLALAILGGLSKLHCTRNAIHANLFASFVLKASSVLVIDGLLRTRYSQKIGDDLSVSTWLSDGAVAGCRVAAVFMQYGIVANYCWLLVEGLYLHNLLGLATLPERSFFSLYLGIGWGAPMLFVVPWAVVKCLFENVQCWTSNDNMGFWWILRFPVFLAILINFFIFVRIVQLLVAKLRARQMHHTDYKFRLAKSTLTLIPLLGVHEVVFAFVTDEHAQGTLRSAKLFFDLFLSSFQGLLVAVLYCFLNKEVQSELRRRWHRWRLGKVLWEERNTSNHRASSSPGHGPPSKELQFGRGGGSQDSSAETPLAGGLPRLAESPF

Usually EC50 stands for the midpoint of the concentration-response curve. For the compound `CCCCCCCCCCCCCCCC(=O)N[C@@H](CCC(=O)NCCCC[C@H](NC(=O)[C@H](CCC(N)=O)NC(=O)[C@@H](NC(=O)[C@H](CO)NC(=O)[C@H](CC(C)C)NC(=O)[C@H](CC(=O)O)NC(=O)[C@H](CO)NC(=O)[C@@H](NC(=O)[C@H](Cc1ccccc1)NC(=O)[C@@H](NC(=O)CNC(=O)[C@H](CCC(=O)O)NC(=O)C(C)(C)NC(=O)[C@@H](N)Cc1ccc(O)cc1)[C@@H](C)O)[C@@H](C)O)[C@@H](C)CC)C(=O)N[C@@H](CC(=O)O)C(=O)N[C@@H](CCCCN)C(=O)N[C@@H](CCCNC(=N)N)C(=O)N[C@@H](C)C(=O)N[C@@H](C)C(=O)N[C@@H](CCC(N)=O)C(=O)N[C@@H](CC(C)C)C(=O)N[C@@H](Cc1ccccc1)C(=O)N[C@H](C(=O)N[C@@H](CCC(=O)O)C(=O)N[C@@H](Cc1c[nH]c2ccccc12)C(=O)N[C@@H](CC(C)C)C(=O)N[C@@H](CCCCN)C(=O)N[C@@H](CC(N)=O)C(=O)NCC(=O)NCC(=O)N1CCC[C@H]1C(=O)N[C@@H](CO)C(=O)N[C@@H](CO)C(=O)NCC(=O)N[C@@H](C)C(=O)N1CCC[C@H]1C(=O)N1CCC[C@H]1C(=O)N1CCC[C@H]1C(=O)N[C@@H](CO)C(N)=O)[C@@H](C)CC)C(=O)O` [SEQ ID NO: 55, Y-Aib-E-G-T-F-T-S-D-L-S-I-Q-K(yE-x53)-DKRAAQLFIEWLKNGGPSSGAPPPS-NH2] (H-Y[Aib]EGTFTSDLSIQK([γGlu-Palmitoyl])DKRAAQLFIEWLKNGGPSSGAPPPS-NH2), the figures for the EC50 in assay [1], in assay [2] and in assay [3] were 0.0156 nM, 18.3 nM and 0.0161 nM, respectively.

In the case of `CCCCCCCCCCCCCCCC(=O)N[C@@H](CCC(=O)NCCCC[C@H](NC(=O)[C@H](CCC(N)=O)NC(=O)[C@@H](NC(=O)[C@H](CO)NC(=O)[C@H](CC(C)C)NC(=O)[C@H](CC(=O)O)NC(=O)[C@H](CO)NC(=O)[C@@H](NC(=O)[C@H](Cc1ccccc1)NC(=O)[C@@H](NC(=O)CNC(=O)[C@H](CCC(N)=O)NC(=O)C(C)(C)NC(=O)[C@@H](N)Cc1ccc(O)cc1)[C@@H](C)O)[C@@H](C)O)[C@@H](C)CC)C(=O)N[C@@H](CC(=O)O)C(=O)N[C@@H](CCCCN)C(=O)N[C@@H](CCCNC(=N)N)C(=O)N[C@@H](C)C(=O)N[C@@H](C)C(=O)NC(C)(C)C(=O)N[C@@H](CC(C)C)C(=O)N[C@@H](Cc1ccccc1)C(=O)N[C@H](C(=O)N[C@@H](CCC(=O)O)C(=O)N[C@@H](Cc1c[nH]c2ccccc12)C(=O)N[C@@H](CC(C)C)C(=O)N[C@@H](CCCCN)C(=O)N[C@@H](C)C(=O)NCC(=O)NCC(=O)N1CCC[C@H]1C(=O)N[C@@H](CO)C(=O)N[C@@H](CO)C(=O)NCC(=O)N[C@@H](C)C(=O)N1CCC[C@H]1C(=O)N1CCC[C@H]1C(=O)N1CCC[C@H]1C(=O)N[C@@H](CO)C(N)=O)[C@@H](C)CC)C(=O)O` [SEQ ID NO: 27, Y-Aib-Q-G-T-F-T-S-D-L-S-I-Q-K(yE-x53)-D-K-R-A-A-Aib-L-F-I-E-W-L-K-A-G-G-P-S-S-G-A-P-P-P-S-NH2] (H-Y[Aib]QGTFTSDLSIQK([γGlu-Palmitoyl])DKRAA[Aib]LFIEWLKAGGPSSGAPPPS-NH2), the EC50 in assay [1] amounted to 0.0826 nM; in assay [2] it was 0.0389 nM; in assay [3], 0.0147 nM.

As for `CCCCCCCCCCCCCCCC(=O)N[C@@H](CCC(=O)NCCCC[C@H](NC(=O)[C@H](CCC(N)=O)NC(=O)[C@H](CCCCN)NC(=O)[C@H](CO)NC(=O)[C@H](CC(C)C)NC(=O)[C@H](CC(=O)O)NC(=O)[C@H](CO)NC(=O)[C@@H](NC(=O)[C@H](Cc1ccccc1)NC(=O)[C@@H](NC(=O)CNC(=O)[C@H](Cc1c[nH]cn1)NC(=O)C(C)(C)NC(=O)[C@@H](N)Cc1ccc(O)cc1)[C@@H](C)O)[C@@H](C)O)C(=O)N[C@@H](CCC(=O)O)C(=O)N[C@@H](CCCCN)C(=O)N[C@@H](CCCNC(=N)N)C(=O)N[C@@H](C)C(=O)N[C@@H](C)C(=O)NC(C)(C)C(=O)N[C@@H](CCC(=O)O)C(=O)N[C@@H](Cc1ccccc1)C(=O)N[C@H](C(=O)N[C@@H](CCC(=O)O)C(=O)N[C@@H](Cc1c[nH]c2ccccc12)C(=O)N[C@@H](CC(C)C)C(=O)N[C@@H](CCCCN)C(=O)N[C@@H](CC(N)=O)C(=O)N[C@H](C(=O)NCC(=O)N1CCC[C@H]1C(=O)N[C@@H](CO)C(=O)N[C@@H](CO)C(=O)NCC(=O)N[C@@H](C)C(=O)N1CCC[C@H]1C(=O)N1CCC[C@H]1C(=O)N1CCC[C@H]1C(=O)N[C@@H](CO)C(N)=O)[C@@H](C)O)[C@@H](C)CC)C(=O)O` [SEQ ID NO: 28, Y-Aib-H-G-T-F-T-S-D-L-S-K-Q-K(yE-x53)-E-K-R-A-A-Aib-E-F-I-E-W-L-K-N-T-G-P-S-S-G-A-P-P-P-S-NH2] (H-Y[Aib]HGTFTSDLSKQK([γGlu-Palmitoyl])EKRAA[Aib]EFIEWLKNTGPSSGAPPPS-NH2), the EC50 in assay [1] turned out to be 0.0368 nM; in assay [2], 0.0048 nM; in assay [3] it was 0.0583 nM.

For `CCCCCCCCCCCCCCCC(=O)N[C@@H](CCC(=O)NCCCC[C@H](NC(=O)[C@H](CCC(N)=O)NC(=O)[C@@H](NC(=O)[C@H](CO)NC(=O)[C@H](CC(C)C)NC(=O)[C@H](CC(=O)O)NC(=O)[C@H](CO)NC(=O)[C@@H](NC(=O)[C@H](Cc1ccccc1)NC(=O)[C@@H](NC(=O)CNC(=O)[C@H](CCC(N)=O)NC(=O)C(C)(C)NC(=O)[C@@H](N)Cc1ccc(O)cc1)[C@@H](C)O)[C@@H](C)O)[C@@H](C)CC)C(=O)N[C@@H](CC(=O)O)C(=O)N[C@@H](CO)C(=O)N[C@@H](CCCNC(=N)N)C(=O)N[C@@H](C)C(=O)N[C@H](C(=O)N[C@@H](CCC(N)=O)C(=O)N[C@@H](CC(=O)O)C(=O)N[C@@H](Cc1ccccc1)C(=O)N[C@H](C(=O)N[C@@H](CCC(=O)O)C(=O)N[C@@H](Cc1c[nH]c2ccccc12)C(=O)N[C@@H](CC(C)C)C(=O)N[C@@H](CCCCN)C(=O)N[C@@H](C)C(=O)NCC(=O)NCC(=O)N1CCC[C@H]1C(=O)N[C@@H](CO)C(=O)N[C@@H](CO)C(=O)NCC(=O)N[C@@H](C)C(=O)N1CCC[C@H]1C(=O)N1CCC[C@H]1C(=O)N1CCC[C@H]1C(=O)N[C@@H](CO)C(N)=O)[C@@H](C)CC)C(C)C)C(=O)O` [SEQ ID NO: 50, Y-Aib-Q-G-T-F-T-S-D-L-S-I-Q-K(yE-x53)-DSRAVQDFIEWLKAGGPSSGAPPPS-NH2] (H-Y[Aib]QGTFTSDLSIQK([γGlu-Palmitoyl])DSRAVQDFIEWLKAGGPSSGAPPPS-NH2), the EC50 was 0.0479 nM in assay [1], 1.72 nM in assay [2] and 0.01 nM in assay [3].

Consider `CCCCCCCCCCCCCCCC(=O)N[C@@H](CCC(=O)NCCCC[C@H](NC(=O)[C@H](CCC(N)=O)NC(=O)[C@@H](NC(=O)[C@H](CO)NC(=O)[C@H](CC(C)C)NC(=O)[C@H](CC(=O)O)NC(=O)[C@H](CO)NC(=O)[C@@H](NC(=O)[C@H](Cc1ccccc1)NC(=O)[C@@H](NC(=O)CNC(=O)[C@H](CCC(N)=O)NC(=O)C(C)(C)NC(=O)[C@@H](N)Cc1ccc(O)cc1)[C@@H](C)O)[C@@H](C)O)[C@@H](C)CC)C(=O)N[C@@H](CC(=O)O)C(=O)N[C@@H](CO)C(=O)N[C@@H](CCCNC(=N)N)C(=O)N[C@@H](C)C(=O)N[C@@H](C)C(=O)N[C@@H](CCC(N)=O)C(=O)N[C@@H](CC(=O)O)C(=O)N[C@@H](Cc1ccccc1)C(=O)N[C@H](C(=O)N[C@@H](CCC(=O)O)C(=O)N[C@@H](Cc1c[nH]c2ccccc12)C(=O)N[C@@H](CC(C)C)C(=O)N[C@@H](CCCCN)C(=O)N[C@@H](CCCNC(=N)N)C(=O)NCC(=O)NCC(=O)N1CCC[C@H]1C(=O)N[C@@H](CO)C(=O)N[C@@H](CO)C(=O)NCC(=O)N[C@@H](C)C(=O)N1CCC[C@H]1C(=O)N1CCC[C@H]1C(=O)N1CCC[C@H]1C(=O)N[C@@H](CO)C(N)=O)[C@@H](C)CC)C(=O)O` [SEQ ID NO: 34, Y-Aib-Q-G-T-F-T-S-D-L-S-I-Q-K(yE-x53)-DSRAAQDFIEWLKRGGPSSGAPPPS-NH2] (H-Y[Aib]QGTFTSDLSIQK([γGlu-Palmitoyl])DSRAAQDFIEWLKRGGPSSGAPPPS-NH2), for which the EC50 in assay [1] stood at 0.0513 nM; in assay [2], 0.222 nM; in assay [3], 0.0074 nM.

With `CCCCCCCCCCCCCCCC(=O)N[C@@H](CCC(=O)NCCCC[C@H](NC(=O)[C@H](CCC(N)=O)NC(=O)[C@@H](NC(=O)[C@H](CO)NC(=O)[C@H](CC(C)C)NC(=O)[C@H](CC(=O)O)NC(=O)[C@H](CO)NC(=O)[C@@H](NC(=O)[C@H](Cc1ccccc1)NC(=O)[C@@H](NC(=O)CNC(=O)[C@H](CCC(N)=O)NC(=O)C(C)(C)NC(=O)[C@@H](N)Cc1ccc(O)cc1)[C@@H](C)O)[C@@H](C)O)[C@@H](C)CC)C(=O)N[C@@H](CCC(=O)O)C(=O)N[C@@H](CCCCN)C(=O)N[C@@H](CCCNC(=N)N)C(=O)N[C@@H](C)C(=O)N[C@H](C(=O)NC(C)(C)C(=O)N[C@@H](CCC(=O)O)C(=O)N[C@@H](Cc1ccccc1)C(=O)N[C@H](C(=O)N[C@@H](CCC(=O)O)C(=O)N[C@@H](Cc1c[nH]c2ccccc12)C(=O)N[C@@H](CC(C)C)C(=O)N[C@@H](CCCCN)C(=O)N[C@@H](C)C(=O)NCC(=O)NCC(=O)N1CCC[C@H]1C(=O)N[C@@H](CO)C(=O)N[C@@H](CO)C(=O)NCC(=O)N[C@@H](C)C(=O)N1CCC[C@H]1C(=O)N1CCC[C@H]1C(=O)N1CCC[C@H]1C(=O)N[C@@H](CO)C(N)=O)[C@@H](C)CC)C(C)C)C(=O)O` [SEQ ID NO: 26, Y-Aib-Q-G-T-F-T-S-D-L-S-I-Q-K(yE-x53)-E-K-R-A-V-Aib-E-F-I-E-W-L-K-A-G-G-P-S-S-G-A-P-P-P-S-NH2] (H-Y[Aib]QGTFTSDLSIQK([γGlu-Palmitoyl])EKRAV[Aib]EFIEWLKAGGPSSGAPPPS-NH2), the values for the concentration for a half-maximal effect (EC50) in assay [1], in assay [2] and in assay [3] were 0.0053 nM, 0.3 nM and 0.0176 nM, respectively.
